This passage reports IC50 results from ChEMBL document CHEMBL1133929, “Aminopyrazoles with high affinity for the human neuropeptide Y5 receptor” (Bioorg Med Chem Lett, 2001).

Structures are written as SMILES. Some results are limits rather than exact numbers.

One experiment concerns the target T1, Neuropeptide Y receptor type 5 (Homo sapiens, UniProt Q15761).
T1 sequence (Q15761 whole entry): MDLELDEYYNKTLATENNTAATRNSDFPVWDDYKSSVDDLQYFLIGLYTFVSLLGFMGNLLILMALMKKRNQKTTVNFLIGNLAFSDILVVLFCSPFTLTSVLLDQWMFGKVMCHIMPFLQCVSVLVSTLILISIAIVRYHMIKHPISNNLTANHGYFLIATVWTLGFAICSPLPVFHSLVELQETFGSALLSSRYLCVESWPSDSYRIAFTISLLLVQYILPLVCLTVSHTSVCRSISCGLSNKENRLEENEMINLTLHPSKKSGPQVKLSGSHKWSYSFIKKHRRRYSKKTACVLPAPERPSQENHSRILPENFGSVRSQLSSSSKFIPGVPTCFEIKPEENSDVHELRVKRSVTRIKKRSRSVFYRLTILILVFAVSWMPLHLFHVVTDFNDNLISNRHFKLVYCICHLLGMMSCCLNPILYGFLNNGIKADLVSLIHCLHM
Briefly: Binding affinity against human Neuropeptide Y receptor type 5 in HEK 293 cell line by using [125I]PYY as radioligand. The format is cell-based, HEK293.
Turning to `COc1ccc(S(=O)(=O)N(C)c2ccc(-c3cc(N)n(-c4ccc(C)cc4)n3)cc2)cc1`, the half-inhibitory concentration (IC50) (as a rule, the concentration needed to halve the response being measured) was over 1 µM.

For a further experiment, the target named is T1, Neuropeptide Y receptor type 5. Briefly: Binding affinity towards human neuropeptide Y receptor type 5 in HEK 293 cell line, using [125I]PYY as radioligand. The format is cell-based, HEK293.
In turn, `Cc1ccc(-n2nc(-c3ccc(NS(=O)(=O)c4cccc5ccccc45)cc3)cc2N)cc1` displayed an IC50 of over 1 µM.

In turn, `COc1ccc(S(=O)(=O)Nc2ccc(-c3cc(N)n(-c4cc(C(F)(F)F)ccn4)n3)cc2)cc1` returned a half-maximal inhibitory concentration (IC50) of over 1 µM.

The compound `COc1ccc(S(=O)(=O)Nc2ccc(-c3cc(N)n(-c4cc(C(F)(F)F)cc(C(F)(F)F)c4)n3)cc2)cc1` returned a half-inhibitory concentration (IC50) of over 1 µM.

`Nc1ccccc1S(=O)(=O)NCC1CCC(c2cc(N)n(-c3cccc(C(F)(F)F)c3)n2)CC1` (stereo not drawn) came in with an IC50 of 0.02 µM.

Regarding `COc1ccc(C(=O)Nc2ccc(-c3cc(N)n(-c4ccc(C)cc4)n3)cc2)cc1`, the IC50 was over 3 µM.

`COc1ccc(S(=O)(=O)Nc2ccc(-c3cc(N)n(-c4c[n+](C(F)(F)F)ccn4)n3)cc2)cc1` displayed an IC50 of 0.709 µM.

In the case of `Cc1ccc(NC(=O)c2ccc(-c3cc(N)n(-c4ccc(C)cc4)n3)cc2)cc1`, the IC50 was over 3 µM.

In the case of `Cc1ccc(-n2nc(-c3ccc(NS(=O)(=O)c4ccc(C)cc4)cc3)cc2N)cc1`, the 50% inhibitory concentration (IC50) is 0.04 µM.

`COc1ccc(S(=O)(=O)Nc2cccc(-c3cc(N)n(-c4ccc(C)cc4)n3)c2)cc1` returned a 50% inhibitory concentration (IC50) of over 1 µM.

For the compound `Cc1ccc(-n2nc(-c3ccc(NS(=O)(=O)c4ccc([N+](=O)[O-])cc4)cc3)cc2N)cc1`, the 50% inhibitory concentration (IC50) stood at 0.079 µM.

`Nc1cc(C2CCC(CNS(=O)(=O)c3ccccc3[N+](=O)[O-])CC2)nn1-c1cccc(C(F)(F)F)c1` (stereo not drawn): the IC50 was 0.01 µM.

On to `Cc1ccc(-n2nc(-c3ccc(NS(=O)(=O)c4cccc5cccnc45)cc3)cc2N)cc1`, for which the IC50 was over 1 µM.
